Reference: ChEMBL document CHEMBL1201862, “PubChem BioAssay data set” (2004)
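Compound exposure: 48 hours, 5 concentrations, 96-well plates. GI50 = concentration required for 50% inhibition of growth.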 Activity calls are given as the source filed them. Rule as the data show it: active = GI50 up to about 1.1 µM and inactive = higher.

Legend:
Experiment in all cases: inhibition of tumour cell growth, NCI panel, 48 h
SF-295 = tested on: SF-295
TK-10 = tested on: TK-10
MCF7 = tested on: MCF7
HCT-15 = tested on: HCT-15
Hs-578T = tested on: Hs-578T
SF-268 = tested on: SF-268
NCI-H226 = tested on: NCI-H226
RPMI-8226 = tested on: RPMI-8226
SK-MEL-5 = tested on: SK-MEL-5
COLO 205 = tested on: COLO 205
MDA-MB-231 = tested on: MDA-MB-231
NCI-H460 = tested on: NCI-H460
SK-MEL-2 = tested on: SK-MEL-2
UACC-62 = tested on: UACC-62
CAKI-1 = tested on: CAKI-1
U-251 = tested on: U-251
MOLT-4 = tested on: MOLT-4
HOP-92 = tested on: HOP-92
HL-60 = tested on: HL-60
K562 = tested on: K562
KM12 = tested on: KM12
SW-620 = tested on: SW-620
LOX IMVI = tested on: LOX IMVI
BT-549 = tested on: BT-549
OVCAR-8 = tested on: OVCAR-8
T47D = tested on: T47D
A549 = tested on: A549
NCI-H522 = tested on: NCI-H522
OVCAR-5 = tested on: OVCAR-5
Malme-3M = tested on: Malme-3M
NCI/ADR-RES = tested on: NCI/ADR-RES
HOP-62 = tested on: HOP-62
EKVX = tested on: EKVX
OVCAR-4 = tested on: OVCAR-4
OVCAR-3 = tested on: OVCAR-3
HT-29 = tested on: HT-29
HCT-116 = tested on: HCT-116
NCI-H23 = tested on: NCI-H23
786-0 = tested on: 786-0
MDA-MB-435 = tested on: MDA-MB-435
PC-3 = tested on: PC-3
UO-31 = tested on: UO-31
UACC-257 = tested on: UACC-257
SK-MEL-28 = tested on: SK-MEL-28
SNB-19 = tested on: SNB-19
IGROV-1 = tested on: IGROV-1
CCRF-CEM = tested on: CCRF-CEM
SN12C = tested on: SN12C
DU-145 = tested on: DU-145
M14 = tested on: M14
A498 = tested on: A498
RXF 393 = tested on: RXF 393
HCC 2998 = tested on: HCC 2998
SNB-75 = tested on: SNB-75
SF-539 = tested on: SF-539
SR = tested on: SR
MDA-N = tested on: MDA-N
ACHN = tested on: ACHN
SK-OV-3 = tested on: SK-OV-3

Measured: GI50

CC(C)=NN/C(=N\c1ccc(Cl)cc1)NS(=O)(=O)c1cc2ccccc2s1
inactive: SF-295 57.5 µM | TK-10 87.9 µM | MCF7 53 µM | Hs-578T > 100 µM | SF-268 76.7 µM | NCI-H226 > 100 µM | RPMI-8226 29 µM | SK-MEL-5 > 100 µM | COLO 205 46.5 µM | MDA-MB-231 > 100 µM | NCI-H460 > 100 µM | SK-MEL-2 65.8 µM | UACC-62 > 100 µM | CAKI-1 97.9 µM | U-251 > 100 µM | MOLT-4 16.6 µM | HOP-92 38.9 µM | HL-60 29.2 µM | K562 23 µM | KM12 90.4 µM | SW-620 > 100 µM | LOX IMVI 77.3 µM | BT-549 41.9 µM | OVCAR-8 > 100 µM | T47D 21.5 µM | A549 44 µM | NCI-H522 38.5 µM | OVCAR-5 32.7 µM | Malme-3M 89.9 µM | NCI/ADR-RES 51.1 µM | HOP-62 > 100 µM | EKVX 12 µM | OVCAR-4 46.9 µM | OVCAR-3 57 µM | HT-29 63.1 µM | HCT-116 40.4 µM | NCI-H23 76 µM | 786-0 > 100 µM | MDA-MB-435 36.7 µM | PC-3 45.7 µM | UO-31 30.5 µM | UACC-257 55.3 µM | SK-MEL-28 > 100 µM | SNB-19 > 100 µM | IGROV-1 34.2 µM | CCRF-CEM 40.4 µM | SN12C 50.7 µM | DU-145 > 100 µM | M14 56.5 µM
71.8 µM: HCT-15

CN1CC[C@]2(c3cccc(O)c3)CC(=O)/C(=C/c3ccc(Cl)c(Cl)c3)[C@@H]1C2
active: RPMI-8226 0.262 µM | RXF 393 0.427 µM | CAKI-1 1.08 µM | U-251 0.975 µM | MOLT-4 0.273 µM | HL-60 0.199 µM | K562 0.296 µM | KM12 0.575 µM | LOX IMVI 0.175 µM | SNB-75 0.455 µM | SR 0.281 µM | HT-29 1.01 µM | 786-0 1.05 µM | MDA-MB-435 0.337 µM | PC-3 0.324 µM | MDA-N 0.552 µM | CCRF-CEM 0.337 µM | SN12C 1.04 µM
1.16 µM: HCT-15
inactive: SF-295 1.52 µM | TK-10 1.86 µM | A498 1.63 µM | MCF7 1.29 µM | Hs-578T 3.05 µM | SF-268 1.71 µM | NCI-H226 2.34 µM | SK-MEL-5 1.55 µM | COLO 205 1.6 µM | HCC 2998 1.41 µM | MDA-MB-231 1.15 µM | NCI-H460 1.28 µM | HOP-92 1.22 µM | SW-620 1.14 µM | BT-549 1.75 µM | OVCAR-8 1.49 µM | A549 1.6 µM | SF-539 2.5 µM | OVCAR-5 1.77 µM | Malme-3M 1.45 µM | NCI/ADR-RES 1.54 µM | EKVX 1.55 µM | OVCAR-4 1.47 µM | HCT-116 1.13 µM | NCI-H23 1.53 µM | UO-31 1.32 µM | UACC-257 1.49 µM | SK-MEL-28 1.55 µM | SNB-19 1.75 µM | IGROV-1 1.88 µM | ACHN 1.15 µM | DU-145 1.65 µM | M14 1.15 µM

COc1ccccc1Cc1ccc(C2C=CC3(CC(=O)C=C3C)C(=O)C2)o1 (configuration not stated)
25.6 µM: HCT-15
inactive: SF-295 22.1 µM | TK-10 39.5 µM | A498 20 µM | MCF7 17.1 µM | Hs-578T 20.2 µM | SF-268 20.3 µM | NCI-H226 25.6 µM | RPMI-8226 17.4 µM | RXF 393 17.4 µM | SK-MEL-5 15.6 µM | COLO 205 23.2 µM | HCC 2998 28.1 µM | MDA-MB-231 21 µM | NCI-H460 30.5 µM | SK-MEL-2 14.7 µM | UACC-62 13.9 µM | CAKI-1 29.6 µM | U-251 16.3 µM | MOLT-4 16 µM | HOP-92 20.5 µM | HL-60 17.7 µM | K562 20 µM | KM12 29 µM | SW-620 18.5 µM | LOX IMVI 17.3 µM | BT-549 20.6 µM | OVCAR-8 17.1 µM | A549 33.9 µM | NCI-H522 16 µM | SF-539 18.6 µM | OVCAR-5 50.8 µM | Malme-3M 17.9 µM | SR 18.4 µM | NCI/ADR-RES 24.7 µM | HOP-62 15 µM | EKVX 34.8 µM | OVCAR-4 31 µM | OVCAR-3 10.2 µM | HT-29 35.3 µM | HCT-116 27.2 µM | NCI-H23 21 µM | 786-0 20.2 µM | MDA-MB-435 19.4 µM | PC-3 16.1 µM | UO-31 29.1 µM | UACC-257 22.4 µM | SK-MEL-28 34.4 µM | MDA-N 18.5 µM | SNB-19 47.2 µM | IGROV-1 29.2 µM | ACHN 33 µM | SN12C 22 µM | DU-145 29.4 µM | M14 32.1 µM

CSc1csc(-c2ccc(-c3ccc(-c4cc(SC)cs4)s3)s2)c1
inactive: SF-295 > 100 µM | TK-10 > 100 µM | MCF7 > 100 µM | Hs-578T > 100 µM | SF-268 > 100 µM | NCI-H226 > 100 µM | RPMI-8226 > 100 µM | SK-MEL-5 > 100 µM | COLO 205 > 100 µM | HCC 2998 > 100 µM | MDA-MB-231 > 100 µM | NCI-H460 > 100 µM | SK-MEL-2 > 100 µM | UACC-62 > 100 µM | U-251 > 100 µM | MOLT-4 > 100 µM | K562 > 100 µM | KM12 > 100 µM | SW-620 > 100 µM | LOX IMVI > 100 µM | SNB-75 > 100 µM | BT-549 > 100 µM | A549 > 100 µM | SF-539 > 100 µM | OVCAR-5 > 100 µM | Malme-3M > 100 µM | SR > 100 µM | NCI/ADR-RES > 100 µM | HOP-62 > 100 µM | EKVX > 100 µM | OVCAR-4 > 100 µM | OVCAR-3 > 100 µM | HT-29 > 100 µM | HCT-116 > 100 µM | NCI-H23 > 100 µM | 786-0 > 100 µM | MDA-MB-435 > 100 µM | SK-OV-3 > 100 µM | PC-3 > 100 µM | UO-31 > 100 µM | UACC-257 > 100 µM | SK-MEL-28 > 100 µM | MDA-N > 100 µM | SNB-19 > 100 µM | IGROV-1 > 100 µM | ACHN > 100 µM | CCRF-CEM > 100 µM | SN12C > 100 µM | M14 > 100 µM
> 100 µM: HCT-15

CC1C(C)(C)C23CC12C1(OCCO1)C3Br (configuration not stated)
inactive: SF-295 > 100 µM | TK-10 > 100 µM | A498 > 100 µM | MCF7 > 100 µM | Hs-578T > 100 µM | SF-268 > 100 µM | NCI-H226 > 100 µM | RPMI-8226 > 100 µM | RXF 393 > 100 µM | SK-MEL-5 > 100 µM | COLO 205 > 100 µM | HCC 2998 > 100 µM | MDA-MB-231 > 100 µM | NCI-H460 > 100 µM | UACC-62 > 100 µM | CAKI-1 > 100 µM | U-251 > 100 µM | MOLT-4 > 100 µM | HL-60 > 100 µM | K562 > 100 µM | KM12 > 100 µM | SW-620 > 100 µM | LOX IMVI > 100 µM | SNB-75 > 100 µM | BT-549 > 100 µM | OVCAR-8 > 100 µM | A549 > 100 µM | SF-539 > 100 µM | OVCAR-5 > 100 µM | Malme-3M > 100 µM | SR > 100 µM | NCI/ADR-RES > 100 µM | HOP-62 > 100 µM | EKVX > 100 µM | OVCAR-4 > 100 µM | OVCAR-3 > 100 µM | HT-29 > 100 µM | HCT-116 > 100 µM | NCI-H23 > 100 µM | 786-0 > 100 µM | MDA-MB-435 > 100 µM | SK-OV-3 > 100 µM | PC-3 > 100 µM | UO-31 11.2 µM | UACC-257 > 100 µM | SK-MEL-28 > 100 µM | MDA-N > 100 µM | SNB-19 > 100 µM | IGROV-1 > 100 µM | ACHN > 100 µM | CCRF-CEM > 100 µM | SN12C > 100 µM | DU-145 > 100 µM | M14 > 100 µM
> 100 µM: HCT-15
